Data reported in patent publication US20220298483A1, “METHOD AND COMPOSITION FOR CHONDROGENESIS” (National Health Research Institutes, priority 2021, published 2022).

Legend:
iPSC-MSC pellets = assay: Quantitative real-time PCR of chondrogenic, osteogenic and Wnt downstream genes; type: cell-based, human; details: for AXIN2 gene expression: 3 days (FIG. 4C); for COL2A1 gene expression / ACAN gene expression: no TGFβ unless added; for COL2A1 gene expression: Day 3 (FIG. 3C); for ACAN gene expression: Day 3 (FIG. 3D); for collagen 2A1 (COL2A1) gene expression: Day 3 (FIG. 1D); for aggrecan (ACAN) gene expression: Day 3 (FIG. 1E); for RUNX2 mRNA expression compared to ChBM: 10 ng/mL in ChBM, Day 3 (FIG. 2E)
Method: (§1) In vitro chondrogenic differentiation using 3D pellet culture was performed as described previously (Liu et al., 2011; Wang et al., 2018; Yen et al., 2013), 2×10^5 trypsinized were centrifuged 450×g for 10 minutes to form a pellet in expansion medium. After 16 hours, the medium was changed to chondrogenic basal medium (ChBM) consisting of low-glucose DMEM supplemented with 100 units/ml penicillin, 100 μg/ml streptomycin (all from Gibco-Thermo Fisher Scientific), 1% Insulin-transferrin-sodium selenite media supplement (Sigma-Aldrich, St Louis, Mo., USA), 2 mM L-glutamine (Gibco-Thermo Fisher Scientific), 10 μM L-Ascorbic acid 2-phosphate (Sigma-Aldrich), 100 nm dexamethasone (Sigma-Aldrich). Addition of TGFβ1 (10 ng/mL; R&D Systems, Minneapolis, Minn., USA), TGFβ3 (10 ng/mL; R&D Systems), XAV939 (XAV; 10 μM; Sigma-Aldrich) or CHIR99021 (CHIR; 10 μM; Sigma-Aldrich) to ChBM was performed as indicated. Cell pellets were harvested at the indicated day for analysis. Micromass culture-based chondrogenic differentiation was performed as previously reported, using 2×10^7 cells/ml of MSCs suspended in expansion medium and 20-μl drops spotted in the center of each well of a 24-well culture plate (Craft et al., 2015; Greco et al., 2011). After adhesion for 1.5 hour in a humidified incubator at 37° C. with 5% CO2, the medium was changed to ChBM with indicated regulators for chondrogenic induction.
Total RNA was isolated using TRI® reagent (Sigma-Aldrich), and quantified using NanoDrop spectrophotometer (Nyxor Biotech, Paris, France) (Wang et al., 2013). Reverse transcription was performed using RevertAid H Minus reverse transcriptase (Thermo Fisher Scientific), and PCR was performed on ABI PRISM 7500 system (Applied Biosystem, Foster City, Calif., USA) with SYBR Fast qPCR kit (KAPA Biosystems, Boston, Mass., USA). mRNA expression level was calculated by using the ΔΔCt method, and glyceraldehyde 3-phosphate dehydrogenase (GAPDH) level were used as housekeeping control. The results are normalized to ChBM to represent effects of indicated modulators.

[1] = test system: N-cadherin/β-catenin interactions in micromass cultured iPSC-MSCs; assay: Proximity ligation assay (PLA) for N-cadherin-β-catenin interaction; type: cell-based, human; details: ChBM plus modulator, 1 day (FIG. 5C, 5D)
Method: Micromass cultured iPSC-MSCs were used for PLA and performed according to the manufacturer's protocol (Sigma-Aldrich). Antibodies against N-cadherin (Abcam) and β-catenin (BD Biosciences) were used for recognition. After ligation and amplification, the PLA signals from each pair of probes in close proximity (<40 nm) were visualized by confocal microscope (Leica TCS SP5 II) and signal counts were analyzed by Image J.

[2] = test system: β-catenin in micromass-cultured iPSC-MSCs; assay: Immunofluorescence quantification of β-catenin expression; type: cell-based, human; details: 1 day (FIG. 8)
Method: Confocal immunofluorescence microscopy and fluorescence quantification of β-catenin in micromass-cultured iPSC-MSCs with the indicated modulators in chondrogenic induction medium for 1 day. Nuclei are labeled by DAPI. Scale bar, 5 μm. ChBM, chondrogenic basal medium without TGFβ. XAV, Wnt/β-catenin antagonist XAV939. CHIR, Wnt/β-catenin agonist CHIR99021. Data are represented as mean±S.D. *, p<0.05, **, p<0.01, ***, p<0.001.
Immunofluorescent staining was performed as previously reported (Wang et al., 2013). Paraformaldehyde-fixed cell samples were permeabilized with 0.1% Triton X-100 and nonspecific binding was blocked by 5% bovine serum albumin Primary antibodies against alpha smooth muscle actin (αSMA) (Sigma-Aldrich), β-catenin (BD Biosciences, San Jose, Calif., USA) or N-cadherin (Abcam, Cambridge, UK) were stained with 1:100 dilution for 24 hours, followed by species specific secondary antibody incubation overnight. Fluorescent signals were acquired by confocal microscopy (Leica TCS SP5 II, Wetzlar, Germany) and analyzed by Image J (NIH, Maryland, USA).

[3] = test system: human MSCs—including iPSC-MSCs, ESC-MSCs and BM-MSCs; assay: 3D pellet culture chondrogenesis in complete chondrogenic medium, Alcian Blue staining and GAG quantification; type: cell-based; details: ChM containing TGFβ3, 10 μM; for pellet condensation / pellet integrity: Day 20, all 3 sources of MSCs
Method: as §1
Samples were washed with PBS and fixed with 4% paraformaldehyde, followed by pH 1.0 1% Alcian blue 8GX (Sigma-Aldrich) staining at room temperature overnight to detect sulfated proteoglycan matrix (Lev and Spicer, 1964). Quantification of Alcian blue staining extracted with 6M Guanidine-HCl was measured in 650 nm absorbance (Song et al., 2018). […]

[4] = test system: β-catenin in iPSC-MSC pellets; assay: Immunofluorescent staining and quantification of nuclear β-catenin; type: cell-based, human; details: ChBM plus modulator, 1 day, compared to ChBM or TGFβ3 (FIG. 4A, 4B)
Method: as §1, with “Micromass culture-based chondrogenic differentiation was performed as previously reported, using 2×10^7 cells/ml of MSCs suspended in expansion medium and 20-μl drops spotted in the center of each well of a 24-well culture plate (Craft et al., 2015; Greco et al., 2011). After adhesion for 1.5 hour in a humidified incubator at 37° C. with 5% CO2, the medium was changed to ChBM with indicated regulators for chondrogenic induction.” left out
(§2) Immunofluorescent staining was performed as previously reported (Wang et al., 2013). […] Fluorescent signals were acquired by confocal microscopy (Leica TCS SP5 II, Wetzlar, Germany) and analyzed by Image J (NIH, Maryland, USA).

[5] = test system: micromass-cultured iPSC-MSCs; assay: Micromass culture chondrogenic differentiation, Alcian Blue staining and quantification; type: cell-based, human; details: ChBM plus modulator; for micromass structural condensation and Alcian Blue intensity: Day 10, compared to ChBM and TGFβ3 (FIG. 3B)
Method: as §1
(§3) Samples were washed with PBS and fixed with 4% paraformaldehyde, followed by pH 1.0 1% Alcian blue 8GX (Sigma-Aldrich) staining at room temperature overnight to detect sulfated proteoglycan matrix (Lev and Spicer, 1964). Quantification of Alcian blue staining extracted with 6M Guanidine-HCl was measured in 650 nm absorbance (Song et al., 2018).

[6] = test system: pellet-cultured iPSC-MSCs; assay: 3D pellet culture chondrogenic differentiation of iPSC-MSCs, Alcian Blue staining and quantification; type: cell-based, human; details: for pellet condensation and Alcian Blue staining compared to ChBM: ChBM plus modulator (10 ng/mL TGFβ3, 10 μM CHIR or XAV), 20 days (FIG. 3A top); for quantification of GAG production: Day 10, compared to ChBM and to TGFβ3 (FIG. 3A right)
Method: as §1, §3

[7] = test system: N-cadherin in iPSC-MSCs cultured as micromass; assay: Immunofluorescent staining of N-cadherin; type: cell-based, human; details: ChBM plus modulator, 24 hours, compared to all other conditions (FIG. 5A, 5B)
Method: as §1, with “Micromass culture-based chondrogenic differentiation was performed as previously reported, using 2×10^7 cells/ml of MSCs suspended in expansion medium and 20-μl drops spotted in the center of each well of a 24-well culture plate (Craft et al., 2015; Greco et al., 2011). After adhesion for 1.5 hour in a humidified incubator at 37° C. with 5% CO2, the medium was changed to ChBM with indicated regulators for chondrogenic induction.” left out
as §2

[8] = test system: Mouse BM-MSCs transplanted subcutaneously into wild-type C57BL/6J mice; assay: In vivo ectopic chondrogenesis, Alcian Blue staining of transplanted MSC pellets; details: local injection every 3 days, harvest Day 20 (FIG. 3F)
Method: Samples were washed with PBS and fixed with 4% paraformaldehyde, followed by pH 1.0 1% Alcian blue 8GX (Sigma-Aldrich) staining at room temperature overnight to detect sulfated proteoglycan matrix (Lev and Spicer, 1964). Quantification of Alcian blue staining extracted with 6M Guanidine-HCl was measured in 650 nm absorbance (Song et al., 2018). All animal work was performed according to protocols approved by the Institutional Animal Care and Use Committee. In vivo ectopic chondrogenesis was performed as previously reported with modifications (Zhao et al., 2014). Mouse BM-MSCs were cultured as 3D pellets in ChBM alone or with addition of TGFβ3, CHIR, or XAV for 3 days, then subcutaneously transplanted to dorsal skin of wild-type C57BL/6J mice, with local injections of modulators every 3 days till the pellet sample was harvested at Day 20. Collected samples were then frozen in optimal cutting temperature (OCT) compound and sliced to […] in thickness for histological staining.

[9] = ChBM plus modulator, 3 days (FIG. 4D)

Molecule	AXIN2 gene expression (iPSC-MSC pellets; ChBM plus modulator)	RUNX2 gene expression (iPSC-MSC pellets; [9])	COL2A1 gene expression (iPSC-MSC pellets; ChBM plus modulator)	ACAN gene expression (iPSC-MSC pellets; ChBM plus modulator)	collagen 2A1 (COL2A1) gene expression (iPSC-MSC pellets; in ChM)	aggrecan (ACAN) gene expression (iPSC-MSC pellets; in ChM)	RUNX2 gene expression (iPSC-MSC pellets; in ChM, Day 3 (FIG. 1F))	N-cadherin/β-catenin interactions, PLA signals [1]	pellet condensation / pellet integrity [3]	nuclear β-catenin levels [4]	micromass structural condensation and Alcian Blue intensity [5]	pellet condensation and Alcian Blue staining compared to ChBM [6]	quantification of GAG production ([6]; ChBM plus modulator)	RUNX2 mRNA expression compared to ChBM (iPSC-MSC pellets)	further results
Cc1c[nH]c(-c2cnc(NCCNc3ccc(C#N)cn3)nc2-c2ccc(Cl)cc2Cl)n1 [CHIR, CHIR99021]	strongly increased	strongly increased	minimal expression	minimal expression	significant downregulation	significant downregulation	the opposite effect	minimal PLA signal detected	decreased pellet integrity	dramatically increased	minimal evidence of any micromass structure or Alcian Blue staining	did not undergo condensation but became disintegrated	minimal GAG production	–	SOX9 gene expression (iPSC-MSC pellets; in ChM, Day 3 (FIG. 1C)): significant downregulation; β-catenin expression [2]: strongest expression of β-catenin
C=C1[C@@H](C)[C@H]2[C@H](Cc3ccccc3)NC(=O)[C@]23[C@H](OC(C)=O)/C=C/[C@@](C)(O)C(=O)[C@@H](C)C/C=C/[C@H]3[C@@H]1O [CytoD, cytochalasin D]	–	–	–	–	–	–	–	–	–	–	–	–	–	–	pellet condensation / structure and chondrogenic differentiation ([6]; 0.25 μM CytoD, 10 μM XAV, Day 10 (FIG. 5F, 5G)): significantly disrupted the condensation process with the pellets completely disintegrated by Day 10
Oc1nc(-c2ccc(C(F)(F)F)cc2)nc2c1CSCC2 [XAV, XAV939]	significantly decreased	significantly decreased	most significantly upregulated	most significantly upregulated	significant upregulation	significant upregulation	decreased expression	significantly increase	increased condensation of the pellets	lowest nuclear β-catenin levels	better structural condensation and stronger Alcian Blue intensity	formed well-condensed spheres and strong Alcian Blue staining	significant increases	–	N-cadherin expression [7]: strongly and most significantly upregulated; quantification of glycosaminoglycans (GAGs), Alcian Blue ([3]; 20 days, compared to ChM (FIG. 1A)): significant increase; quantitation of GAG production in micromass culture ([5]; Day 10 (FIG. 3B)): highest production of GAG; GAG production in in vivo differentiated samples ([8]; 10 μM): highest level of GAG production; GAG production in vivo compared to TGFβ3 agonism [8]: significantly increased; GAG production by Alcian Blue staining, XAV versus TGFβ3 ([6]; ChBM plus modulator, Day 10 (FIG. 3A bottom)): more rapidly induced
TGFβ1: pleomorphic growth factor commonly used to induce MSC chondrogenesis (R&D Systems)	–	–	–	–	–	–	–	–	–	–	–	–	–	significantly upregulated	–
TGFβ3: pleomorphic growth factor commonly used to induce MSC chondrogenesis (R&D Systems) (protein, UniProt P10600 301-412, looked up) Transforming growth factor …: ALDTNYCFRNLEENCCVRPLYIDFRQDLGWKWVHEPKGYYANFCSGPCPYLRSADTTHSTVLGLYNTLNPEASASPCCVPQDLEPLTILYYVGRTPKVEQLSNMVVKSCKCS	increased expression	increased expression	did not increase expression	did not increase expression	–	–	–	–	–	–	–	formed well-condensed spheres and strong Alcian Blue staining	–	significantly upregulated	–
